The source of these data is patent US6984649B1, “Pyridine derivatives” (Bayer Aktiengesellschaft, priority 2000, dated 2006).

What is called IC50 is the concentration at which inhibition is half-maximal.

In this experiment the target is T1, human IKK-β (Homo sapiens, UniProt O14920).
T1 construct: A cDNA fragment encoding human IKK-β open reading frame was generated by PCR; His tag (from pcDNA3.1/His C); made in house; host or cells: Sf21 insect cells (baculovirus); substrate made in E. coli
T1 sequence (O14920 1-756): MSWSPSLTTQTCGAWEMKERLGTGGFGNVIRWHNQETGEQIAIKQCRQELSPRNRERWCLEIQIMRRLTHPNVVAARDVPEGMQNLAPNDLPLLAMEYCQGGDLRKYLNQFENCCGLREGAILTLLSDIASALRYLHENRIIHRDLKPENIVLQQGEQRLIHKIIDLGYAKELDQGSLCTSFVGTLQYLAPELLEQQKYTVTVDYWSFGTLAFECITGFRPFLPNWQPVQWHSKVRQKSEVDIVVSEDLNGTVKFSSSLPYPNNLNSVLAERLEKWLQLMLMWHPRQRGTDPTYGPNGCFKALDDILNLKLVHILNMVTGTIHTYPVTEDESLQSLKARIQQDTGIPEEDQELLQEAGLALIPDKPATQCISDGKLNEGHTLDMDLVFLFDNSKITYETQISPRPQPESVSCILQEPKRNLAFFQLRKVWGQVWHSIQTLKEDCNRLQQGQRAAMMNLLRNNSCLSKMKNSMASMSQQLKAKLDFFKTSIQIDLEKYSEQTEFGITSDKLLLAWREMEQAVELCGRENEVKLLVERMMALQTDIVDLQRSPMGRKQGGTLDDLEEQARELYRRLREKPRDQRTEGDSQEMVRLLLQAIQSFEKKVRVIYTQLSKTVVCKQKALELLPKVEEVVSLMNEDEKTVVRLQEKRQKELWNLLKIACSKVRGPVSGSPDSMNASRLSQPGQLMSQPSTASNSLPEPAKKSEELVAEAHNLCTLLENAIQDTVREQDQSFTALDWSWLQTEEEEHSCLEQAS
Nature of the experiment: IKK-β kinase inhibitory assay. The class given is biochemical. As to conditions: compounds as yielded by solid phase synthesis, purity about 40 to 90%, read-out: In vitro activity grade (In vitro IC50). The procedure, abridged: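 His-tagged human IKK-β from baculovirus-infected Sf21 cells (0.6 μg/ml final) phosphorylates biotinylated GST-IκBα(1-54) (0.2 μM) in Tris-HCl pH 7.6 buffer with MgCl2. ATP with [γ-33P]ATP added, then 2 h at room temperature. Biotinylated substrate captured on streptavidin plates; bound radioactivity counted by scintillation.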
For `N#Cc1c(C2CCCNC2)cc(-c2c(O)cccc2OCc2ccc(Cl)c(Cl)c2)nc1N` (centres unmarked) [Example 2-05], the IC50 was below 0.5 µM. Then `Cc1ccccc1COc1cccc(O)c1-c1cc(C2CCCNC2)c(C#N)c(N)n1` (centres unmarked) [Example 2-06], with below 0.5 µM; and `N#Cc1c(C2CCCNC2)cc(-c2c(O)cccc2OCc2ccccc2-c2ccccc2)nc1N` (centres unmarked) [Example 2-22], with below 0.5 µM; and `N#Cc1c(C2CCNCC2)cc(-c2c(O)cccc2OCc2ccccc2)nc1N` [Example 2-23], with below 0.5 µM. With `N#Cc1c(C2CCCNC2)cc(-c2c(O)cccc2OCc2ccc(Br)cc2)nc1N` (centres unmarked) [Example 2-24] the figure was below 0.5 µM; with `N#Cc1c(C2CCCNC2)cc(-c2c(O)cccc2OCc2ccccc2F)nc1N` (centres unmarked) [Example 2-25], below 0.5 µM. Then `N#Cc1c(C2CCCNC2)cc(-c2c(O)cccc2OCc2ccc(F)cc2F)nc1N` (centres unmarked) [Example 2-26], with below 0.5 µM. As to `N#Cc1c(C2CCCNC2)cc(-c2c(O)cccc2OCc2cccc(F)c2)nc1N` (centres unmarked) [Example 2-27], the IC50 was below 0.5 µM.

Turning to `N#Cc1c(C2CCCNC2)cc(-c2c(O)cccc2OCc2ccc(F)cc2)nc1N` (centres unmarked) [Example 2-28], the IC50 was below 0.5 µM. Then `N#Cc1c(C2CCCNC2)cc(-c2c(O)cccc2OCc2ccc(F)c(F)c2)nc1N` (centres unmarked) [Example 2-29], with below 0.5 µM; and `COC(=O)c1ccc(COc2cccc(O)c2-c2cc(C3CCCNC3)c(C#N)c(N)n2)cc1` (centres unmarked) [Example 2-30], with below 0.5 µM; and `CC(C)(C)c1ccc(COc2cccc(O)c2-c2cc(C3CCCNC3)c(C#N)c(N)n2)cc1` (centres unmarked) [Example 2-31], with below 0.5 µM.

For the compound `N#Cc1c(C2CCCNC2)cc(-c2c(O)cccc2OCc2cccc3ccccc23)nc1N` (centres unmarked) [Example 2-32], the IC50 is below 0.5 µM. Then `N#Cc1c(C2CCCNC2)cc(-c2c(O)cccc2OCc2ccc(-c3ccccc3)cc2)nc1N` (centres unmarked) [Example 2-33], with below 0.5 µM; and `N#Cc1c(C2CCCNC2)cc(-c2c(O)cccc2OCc2ccc(Cl)cc2Cl)nc1N` (centres unmarked) [Example 2-34], with below 0.5 µM; and `Cc1ccc(COc2cccc(O)c2-c2cc(C3CCCNC3)c(C#N)c(N)n2)cc1` (centres unmarked) [Example 2-35], with below 0.5 µM.

On to `N#Cc1c(C2CCCNC2)cc(-c2c(O)cccc2OCc2ccc(C(F)(F)F)cc2)nc1N` (centres unmarked) [Example 2-36], for which the IC50 is below 0.5 µM. With `N#Cc1c(C2CCCNC2)cc(-c2c(O)cccc2OCc2ccccc2F)nc1N` (centres unmarked) [Example 2-37], the IC50 is below 0.5 µM. Then `COC(=O)c1ccc(COc2cccc(O)c2-c2cc(C3CCCNC3)c(C#N)c(N)n2)cc1` (centres unmarked) [Example 2-38], with below 0.5 µM; and `N#Cc1c(C2CCCNC2)cc(-c2c(O)cccc2OCc2ccc(Br)cc2)nc1N` (centres unmarked) [Example 2-39], with below 0.5 µM.

As for `N#Cc1c(CCN)cc(-c2c(O)cccc2OCc2ccccc2)nc1N` [Example 2-40], the IC50 is below 0.5 µM. Consider `N#Cc1c(C2CCCNC2)cc(-c2c(O)cccc2OCCc2ccccc2)nc1N` (centres unmarked) [Example 2-41], for which the IC50 is below 0.5 µM. Then `N#Cc1c(C2CCCNC2)cc(-c2c(O)cccc2OCc2ccccn2)nc1N` (centres unmarked) [Example 2-42], with below 0.5 µM. Regarding `N#Cc1c(C2CCCNC2)cc(-c2c(O)cccc2OCc2cccnc2)nc1N` (centres unmarked) [Example 2-43], the IC50 is below 0.5 µM.

For the compound `N#Cc1c(C2CCCNC2)cc(-c2c(O)cccc2OCc2ccncc2)nc1N` (centres unmarked) [Example 2-44], the IC50 is below 0.5 µM. With `N#Cc1c(C2CCCNC2)cc(-c2c(O)cccc2OCc2ccc3ccccc3n2)nc1N` (centres unmarked) [Example 2-45] the figure was below 0.5 µM; with `N#Cc1c(C2CCCNC2)cc(-c2c(O)cccc2OCCC(c2ccccc2)c2ccccc2)nc1N` (centres unmarked) [Example 2-46], below 0.5 µM. With `N#Cc1c(C2CCCNC2)cc(-c2c(O)cccc2OCc2csc3ccc(Cl)cc23)nc1N` (centres unmarked) [Example 2-47] the figure was below 0.5 µM; with `N#Cc1c(C2CCCNC2)cc(-c2c(O)cccc2OCc2ncon2)nc1N` (centres unmarked) [Example 2-48], below 0.5 µM. Then `Cc1cc(COc2cccc(O)c2-c2cc(C3CCCNC3)c(C#N)c(N)n2)no1` (centres unmarked) [Example 2-49], with below 0.5 µM; and `N#Cc1c(C2CCCNC2)cc(-c2c(O)cccc2OCCCc2ccccc2)nc1N` (centres unmarked) [Example 2-50], with below 0.5 µM. Regarding `N#Cc1c(C2CCCNC2)cc(-c2c(O)cccc2OCC(=O)c2ccccc2)nc1N` (centres unmarked) [Example 2-51], the IC50 is below 0.5 µM.

Consider `N#Cc1c(C2CCNCC2)cc(-c2c(O)cccc2OCCc2ccccc2)nc1N` [Example 2-52], for which the IC50 is below 0.5 µM. Then `N#Cc1c(C2CCCNC2)cc(-c2c(O)cccc2OCC2CCCCC2)nc1N` (centres unmarked) [Example 2-53], with below 0.5 µM; and `CC(C)Oc1cccc(O)c1-c1cc(C2CCCNC2)c(C#N)c(N)n1` (centres unmarked) [Example 2-54], with below 0.5 µM. Turning to `CCCOc1cccc(O)c1-c1cc(C2CCCNC2)c(C#N)c(N)n1` (centres unmarked) [Example 2-55], the IC50 was below 0.5 µM. On to `C=CCOc1cccc(O)c1-c1cc(C2CCCNC2)c(C#N)c(N)n1` (centres unmarked) [Example 2-56], for which the IC50 is below 0.5 µM. As for `COc1cccc(O)c1-c1cc(C2CCCNC2)c(C#N)c(N)n1` (centres unmarked) [Example 2-57], the IC50 is below 0.5 µM.

Regarding `CCOc1cccc(O)c1-c1cc(C2CCCNC2)c(C#N)c(N)n1` (centres unmarked) [Example 2-58], the IC50 is below 0.5 µM.

In the case of `CC(C)COc1cccc(O)c1-c1cc(C2CCCNC2)c(C#N)c(N)n1` (centres unmarked) [Example 2-59], the IC50 was below 0.5 µM. As for `CCCCCOc1cccc(O)c1-c1cc(C2CCCNC2)c(C#N)c(N)n1` (centres unmarked) [Example 2-60], the concentration for half-maximal inhibition (IC50) is below 0.5 µM. With `CN1CCCC(c2cc(-c3ccccc3O)nc(N)c2C#N)C1` (centres unmarked) [Example 3-03], the IC50 was below 0.5 µM. Then `CCCN1CCCC(c2cc(-c3ccccc3O)nc(N)c2C#N)C1` (centres unmarked) [Example 3-04], with below 0.5 µM; and `N#Cc1c(C2CCCN(Cc3ccccc3)C2)cc(-c2ccccc2O)nc1N` (centres unmarked) [Example 3-05], with below 0.5 µM.

Turning to `N#Cc1c(C2CCCN(CCc3ccccc3)C2)cc(-c2ccccc2O)nc1N` (centres unmarked) [Example 3-06], the IC50 lay within 0.5 to 2 µM. Then `COc1ccc(CN2CCCC(c3cc(-c4c(O)cccc4O)nc(N)c3C#N)C2)cc1` (centres unmarked) [Example 3-07], with below 0.5 µM. Then `COc1ccc(CN2CCCC(c3cc(-c4c(O)cccc4OCC4CC4)nc(N)c3C#N)C2)cc1` (centres unmarked) [Example 3-08], with 2 to 10 µM; and `Nc1nc(-c2c(O)cccc2OCc2ccccc2)cc(C2CCCNC2)c1CO` (centres unmarked) [Example 12-02], with below 0.5 µM. Then `CCCOc1cccc(O)c1-c1cc(C2CCCNC2)c(CO)c(N)n1` (centres unmarked) [Example 12-03], with below 0.5 µM. As to `CC(C)(C)COc1cccc(O)c1-c1cc(C2CCCNC2)c(CO)c(N)n1` (centres unmarked) [Example 12-04], the IC50 was below 0.5 µM. Turning to `Nc1nc(-c2c(O)cccc2OCC2CC2)cc(C2CCNCC2)c1CO` [Example 12-05], the IC50 was below 0.5 µM. `CCCOc1cccc(O)c1-c1cc(C2CCNCC2)c(CO)c(N)n1` [Example 12-06]: the IC50 was below 0.5 µM.

Turning to `CC(C)CCCOc1cccc(O)c1-c1cc(C2CCNCC2)c(CO)c(N)n1` [Example 12-07], the IC50 was below 0.5 µM. Then `O=C1Nc2nc(-c3c(O)cccc3F)cc(C3CCCNC3)c2CO1` (centres unmarked) [Example 18-07], with below 0.5 µM; and `O=C1Nc2nc(-c3ncccc3O)cc(C3CCCNC3)c2CO1` (centres unmarked) [Example 18-08], with below 0.5 µM. With `Cc1cc(-c2c(O)cccc2OCC2CC2)nc2c1COC(=O)N2` [Example 18-09] the figure was 2 to 10 µM. Regarding `O=C1Nc2nc(-c3c(O)cccc3OCc3ccccc3)cc(C3CCCNC3)c2CO1` (centres unmarked) [Example 18-10], the IC50 was below 0.5 µM. For `CCCOc1cccc(O)c1-c1cc(C2CCCNC2)c2c(n1)NC(=O)OC2` (centres unmarked) [Example 18-11], the IC50 was below 0.5 µM. Consider `O=C1Nc2nc(-c3c(O)cccc3O)cc(C3CCNCC3)c2CO1` [Example 18-12], for which the IC50 was in the range of 0.5 to 2 µM. Then `O=C1Nc2nc(-c3c(O)cccc3OCC3CC3)cc(C3CCNCC3)c2CO1` [Example 18-13], with below 0.5 µM; and `CCCOc1cccc(O)c1-c1cc(C2CCNCC2)c2c(n1)NC(=O)OC2` [Example 18-14], with below 0.5 µM.

As to `CC(C)CCCOc1cccc(O)c1-c1cc(C2CCNCC2)c2c(n1)NC(=O)OC2` [Example 18-15], the concentration for half-maximal inhibition (IC50) is below 0.5 µM. Consider `O=C1Nc2nc(-c3c(O)cccc3OCc3ccccc3)cc(C3CCNCC3)c2CO1` [Example 18-16], for which the IC50 was below 0.5 µM.

In the case of `CC(=O)NCc1c(C2CCCNC2)cc(-c2ccccc2O)nc1N` (centres unmarked) [Example 23-04], the half-inhibitory concentration (IC50) was below 0.5 µM. As for `Nc1nc(-c2ccccc2O)cc(C2CCCNC2)c1CNC(=O)C1CC1` (centres unmarked) [Example 23-05], the IC50 was below 0.5 µM.
